From US10669301B2, “Phosphoramidite building blocks for sugar-conjugated oligonucleotides” (AM CHEMICALS LLC, priority 2013, dated 2020) come the findings set out here.

The data set in a line: Hydrolysis of phosphoramidite building blocks in 95% aqueous MeCN followed by reverse-phase HPLC. The settings on record: 95% aqueous MeCN at 25° C. Type of data set: physicochemical. On the procedure:
The hydrolysis of phosphoramidite building blocks 12 and 16 in 95% aqueous MeCN at 25° C. was followed by reverse-phase HPLC.

“5′-O-(4,4′-Dimethoxytrityl)-3′-O—[(N,N-diisopropylamino)[2-[[2-[(2,3,4,6-tetra-O-acetyl-β-D-glucopyranosyl)oxy]ethyl]oxy]ethoxy]phosphinyl]thymidine [Compound 16]” returned a half-life of hydrolysis of 33 h.
“5′-O-(4,4′-Dimethoxytrityl)-3′-O—[(N,N-diisopropylamino)[3-[(2,3,4,6-tetra-O-acetyl-β-D-glucopyranosyl)oxy]propyl]phosphino]thymidine [Compound 12]” showed a half-life of hydrolysis of 48 h.
